One experiment deals with X-box-binding protein 1 (Homo sapiens, UniProt P17861). The experiment is classed as functional, Cricetulus griseus.
The target in another experiment is Cytochrome P450 2C19 (Homo sapiens, UniProt P33261). Put plainly: Cytochrome panel assay with activity outcomes. Panel member name: p450-cyp2c19 Compounds with AC50 equal or less than 10 uM are considered active. The experiment is classed as functional. The following applies: read-out: AC50.
Experiment [1] concerns the target Voltage-gated N-type calcium channel alpha-1B subunit/Amyloid beta A4 precursor protein-binding family A member 1 (Homo sapiens, UniProt Q00975+Q02410). The experiment can be described thus: disruptors of Mint-PDZ/N-type channel peptide interaction – biochemical, HTRF, set 2, SAR follow-up (AID 434980). It is filed as functional. For orientation: Time-resolved FRET reads energy transfer from a long-lived donor to a nearby acceptor.

The nature of experiment [2]: A cytotoxicity screen of small molecule inhibitors of the PhoP region in Salmonella typhi identified in the primary screen. [Related pubchem assays: 1850, 1864, 1985 ]. It is filed as functional.
A short description of experiment [3]: A Cell Based Secondary Assay To Explore Cytotoxicity of Compounds that Sensitize Mycobacterium Tuberculosis to Beta-Lactam Antibiotics. The experiment is classed as functional.
A short description of experiment [4]: Luminescence-based dose response cell-based high throughput screening assay for cytotoxic compounds using the IEC-6 intestinal epithelial cell line. [Related pubchem assays: 1858 (Summary AID.), 1825 (Counterscreen.), 1907 (Confirmation screen.)]. The experiment is classed as functional. In general terms: The purpose of a counterscreen is to sort out artefacts and off-target activity.

Experiment [5] in a line: blockade of melanocortin 4 receptor signaling – cell-based, plate reader, cherry pick, counter-screen for LGR2 antagonist project, dose response (AID 743444).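 Also: transfected HEK 293 cells stimulated with alpha-MSH peptide; potency of inhibitors of the alpha-MSH evoked signal.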 It is filed as functional.
Experiment [6] can be described thus: viability loss in HEK293 cells – cell-based, plate reader, cherry-picked samples, cytotoxicity control, dose response (AID 743446). The experiment is classed as functional.
Experiment [7] in a line: Trypanosoma cruzi growth suppression in host cells – NIH3T3 host cells, beta-gal luminescence, confirmation (AID 2044).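 Also: intracellular parasites grown in NIH/3T3 mouse fibroblasts as host cells; luminescent beta-galactosidase reporter signal from transgenic T. cruzi replicating inside host cells; inhibitors lower the luminescence signal.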 The experiment is classed as functional, cell-based.
Another experiment deals with Beta-galactosidase (Escherichia coli, UniProt Q8VNN2). Put plainly: PubChem AID 485352. The experiment is classed as functional.
The target of experiment [8] is T1, Type-1 angiotensin II receptor (Homo sapiens, UniProt P30556).
T1 sequence (P30556 whole entry): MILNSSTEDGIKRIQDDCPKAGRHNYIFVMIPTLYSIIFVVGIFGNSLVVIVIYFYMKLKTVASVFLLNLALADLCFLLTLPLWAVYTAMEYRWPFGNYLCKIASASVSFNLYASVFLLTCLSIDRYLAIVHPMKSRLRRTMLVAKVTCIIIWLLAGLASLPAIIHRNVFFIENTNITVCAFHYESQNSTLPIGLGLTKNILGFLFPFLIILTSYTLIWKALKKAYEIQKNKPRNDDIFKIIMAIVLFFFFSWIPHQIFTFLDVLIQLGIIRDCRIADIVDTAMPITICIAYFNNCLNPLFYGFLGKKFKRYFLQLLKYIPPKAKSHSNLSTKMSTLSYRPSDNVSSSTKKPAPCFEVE
The experiment can be described thus: antagonism of angiotensin II type 1 receptor – cell-based, uHTS hits, selectivity assay for APJ receptor antagonist project, dose response (AID 463214).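 Also: antagonist potency against angiotensin II stimulated AT1 response.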 It is filed as functional.

Experiment [9] can be described thus: microbe, parasite or virus in culture. The experiment is classed as functional. The following applies: Mycobacterium tuberculosis.
The nature of experiment [10]: NIH3T3 cell viability loss – ATP luminescence, mouse fibroblasts, counter-screen, dose response (AID 2010).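 Also: cells exposed to compound for about 90 hours before reading.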 The experiment is classed as functional, cell-based.
A short description of experiment [11]: A549 cell cytotoxicity, dose response, cytotoxicity control, plate reader, cherry-pick, antagonist series (AID 743412). The experiment is classed as functional, cell-based.
Experiment [12] has as its target T2, Heat shock factor protein 1 (Mus musculus, UniProt P38532).
T2 sequence (P38532 whole entry): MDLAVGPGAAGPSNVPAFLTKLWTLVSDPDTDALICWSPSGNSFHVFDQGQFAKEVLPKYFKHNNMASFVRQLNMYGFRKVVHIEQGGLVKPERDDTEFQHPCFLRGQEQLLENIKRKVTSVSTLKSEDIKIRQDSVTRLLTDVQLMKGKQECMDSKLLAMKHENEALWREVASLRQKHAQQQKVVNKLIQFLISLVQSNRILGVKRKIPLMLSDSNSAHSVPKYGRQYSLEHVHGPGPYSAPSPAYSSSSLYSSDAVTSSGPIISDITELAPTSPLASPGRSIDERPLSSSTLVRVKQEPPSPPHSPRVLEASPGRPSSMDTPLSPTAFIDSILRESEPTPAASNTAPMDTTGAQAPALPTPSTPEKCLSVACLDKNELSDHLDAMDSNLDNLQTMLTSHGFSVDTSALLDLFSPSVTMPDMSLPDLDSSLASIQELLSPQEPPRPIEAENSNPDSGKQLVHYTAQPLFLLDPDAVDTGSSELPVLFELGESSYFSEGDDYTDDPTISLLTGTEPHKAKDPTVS
The experiment can be described thus: decrease of HSF1-responsive luciferase luminescence – cell-based, NIH3T3, dose retest, confirmation (AID 2382).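 Also: NIH3T3 fibroblasts with HSF1-driven luciferase reporter stressed by proteasome inhibitor MG132; luminescence from HSF1-driven luciferase expression after 8 hours of MG132 stress.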 It is filed as functional.

The nature of experiment [13]: reduction of Shn3 3'UTR-driven luciferase in osteoblasts – cell-based, Clone20 osteoblasts, firefly luciferase, cherry-picked, dose response (AID 624132).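 Also: firefly luciferase luminescence from reporter carrying the Shn3 3'UTR in osteoblasts.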 The experiment is classed as functional.
Experiment [14] is described as follows: blockers of bursicon-stimulated LGR2 cAMP reporter – cell-based, HEK293, CRE-luciferase reporter, cherry pick, set 2, dose response (AID 743343).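 Also: transfected cells were stimulated with diluted bursicon conditioned medium after compound addition.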 It is filed as functional.
In the next experiment the test system is INS1. The experiment can be described thus: INS-1E survival protection against cytokine death – cell-based, luminescence, retest, dose response (AID 449756).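 Also: cell death triggered by IL-1 beta plus TNF-alpha plus IFN-gamma mixture; protective hits raise ATP signal compared with cytokine alone wells.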 The following applies: Rattus norvegicus. It is filed as functional.
The nature of experiment [15]: non-specific 3'UTR reporter inhibition in Clone20-Shn3RL – cell-based, Renilla luciferase, cherry-picked, counter-screen for Shn3 inhibitor project, dose response (AID 624133). It is filed as functional.
Experiment [16] is described as follows: Fluorescence-based cell-based high throughput dose response assay for inhibitors of the interaction of nucleotide-binding oligomerization domain containing 2 (NOD2) and the receptor-interacting serine-threonine kinase 2 (RIPK2). The experiment is classed as functional. The following applies: Homo sapiens.
Experiment [17] is described as follows: toxicity toward HepG2 liver cells – cell-based, plate reader, cherry-pick, antagonist series, cytotoxicity control, dose response (AID 743416). It is filed as functional.
Experiment [18] can be described thus: loss of viability in HepG2 cells – cell-based, CellTiter-Glo, cherry-picked, cytotoxicity control for Shn3 inhibitor project, dose response (AID 624134). The experiment is classed as functional. (Cellular ATP, detected with luciferase, serves as a proxy for viable cell number.)
The subject of a further experiment is Vero. The experiment can be described thus: viability of Vero cells under compound – cytotoxicity control for flavivirus capping enzyme inhibitors (AID 588742). The experiment is classed as functional. The following applies: Chlorocebus sabaeus.
The target in a further experiment is Genome polyprotein (dengue virus type 2, UniProt P29990). The experiment can be described thus: flavivirus cap methylation enzyme inhibition – biochemical, confirmation dose response, primary screen (AID 588689). The experiment is classed as functional.
The target in experiment [19] is T3, Alkaline phosphatase, tissue-nonspecific isozyme (Homo sapiens, UniProt P05186).
T3 sequence (P05186 whole entry): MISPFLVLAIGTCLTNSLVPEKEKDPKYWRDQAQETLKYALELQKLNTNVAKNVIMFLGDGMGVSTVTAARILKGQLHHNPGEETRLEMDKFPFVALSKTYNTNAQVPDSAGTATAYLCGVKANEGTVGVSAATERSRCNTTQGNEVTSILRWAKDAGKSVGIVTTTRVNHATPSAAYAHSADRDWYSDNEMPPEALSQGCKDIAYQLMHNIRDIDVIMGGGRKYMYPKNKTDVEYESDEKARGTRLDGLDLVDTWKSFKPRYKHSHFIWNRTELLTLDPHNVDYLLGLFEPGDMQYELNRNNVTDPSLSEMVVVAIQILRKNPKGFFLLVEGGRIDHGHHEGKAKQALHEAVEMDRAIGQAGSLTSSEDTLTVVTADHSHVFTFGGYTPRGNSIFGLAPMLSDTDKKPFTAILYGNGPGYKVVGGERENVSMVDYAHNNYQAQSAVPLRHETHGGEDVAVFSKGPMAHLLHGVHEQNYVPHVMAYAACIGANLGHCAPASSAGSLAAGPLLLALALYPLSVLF

Experiment [20] relates to Streptococcus sp. 'group A'. The experiment can be described thus: Streptococcus pyogenes SK(-)GAS viability under kanamycin – luminescence, BacTiterGlo, confirmation, counter-screen for streptokinase expression inhibitor project, dose response (AID 1900). It is filed as functional, organism-based.
The next experiment relates to Streptococcus. Put plainly: GAS UMAA2166 growth inhibition – luminescence, BacTiterGlo, counter-screen for streptokinase expression inhibitor project, dose response (AID 1915).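 Also: potency for reduction of bacterial viability or growth.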 It is filed as functional, organism-based.

Each structure is given as a SMILES string. Calls of active or inactive are those of the source. A value given as a limit tells only on which side of the number the result lay.
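For Absolute IC50 (XBP1) in this document: confirmatory dose-response counter-screen serving a CHOP assay.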

Beta-galactosidase, sequence (Q8VNN2 whole entry): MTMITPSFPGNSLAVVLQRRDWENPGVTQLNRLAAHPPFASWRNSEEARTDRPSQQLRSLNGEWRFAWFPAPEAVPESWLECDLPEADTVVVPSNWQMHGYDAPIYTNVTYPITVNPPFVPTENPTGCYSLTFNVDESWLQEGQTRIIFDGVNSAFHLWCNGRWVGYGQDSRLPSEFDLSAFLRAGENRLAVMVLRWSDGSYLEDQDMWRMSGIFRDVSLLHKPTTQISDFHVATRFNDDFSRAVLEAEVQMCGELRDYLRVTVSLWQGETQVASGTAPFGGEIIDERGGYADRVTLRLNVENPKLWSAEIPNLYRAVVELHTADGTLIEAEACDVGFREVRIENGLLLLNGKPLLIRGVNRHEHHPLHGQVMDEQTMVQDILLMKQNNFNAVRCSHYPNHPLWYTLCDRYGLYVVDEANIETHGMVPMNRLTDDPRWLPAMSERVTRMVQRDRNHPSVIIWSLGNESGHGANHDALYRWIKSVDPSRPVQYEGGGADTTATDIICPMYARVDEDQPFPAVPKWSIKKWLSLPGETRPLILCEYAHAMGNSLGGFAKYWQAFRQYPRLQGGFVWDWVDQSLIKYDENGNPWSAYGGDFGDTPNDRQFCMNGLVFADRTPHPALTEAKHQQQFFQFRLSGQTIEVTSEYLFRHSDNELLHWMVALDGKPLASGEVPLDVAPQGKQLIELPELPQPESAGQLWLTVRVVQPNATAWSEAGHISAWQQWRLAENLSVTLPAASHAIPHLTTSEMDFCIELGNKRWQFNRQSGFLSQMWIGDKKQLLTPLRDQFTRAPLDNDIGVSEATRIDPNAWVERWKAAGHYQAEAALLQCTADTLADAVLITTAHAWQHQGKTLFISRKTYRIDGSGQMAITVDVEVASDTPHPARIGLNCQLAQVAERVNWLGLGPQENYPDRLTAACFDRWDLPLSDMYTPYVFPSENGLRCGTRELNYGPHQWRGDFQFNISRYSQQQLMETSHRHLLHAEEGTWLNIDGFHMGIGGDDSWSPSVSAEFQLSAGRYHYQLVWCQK
X-box-binding protein 1, sequence (P17861 whole entry): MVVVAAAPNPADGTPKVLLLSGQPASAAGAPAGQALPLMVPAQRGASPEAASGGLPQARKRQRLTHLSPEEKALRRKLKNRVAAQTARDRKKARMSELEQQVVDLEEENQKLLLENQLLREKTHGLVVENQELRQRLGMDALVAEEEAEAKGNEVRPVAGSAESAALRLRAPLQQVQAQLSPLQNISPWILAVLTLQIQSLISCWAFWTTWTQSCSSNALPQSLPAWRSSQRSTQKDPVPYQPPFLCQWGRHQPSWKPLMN
Genome polyprotein, sequence (P29990 2492-3391 limits assumed): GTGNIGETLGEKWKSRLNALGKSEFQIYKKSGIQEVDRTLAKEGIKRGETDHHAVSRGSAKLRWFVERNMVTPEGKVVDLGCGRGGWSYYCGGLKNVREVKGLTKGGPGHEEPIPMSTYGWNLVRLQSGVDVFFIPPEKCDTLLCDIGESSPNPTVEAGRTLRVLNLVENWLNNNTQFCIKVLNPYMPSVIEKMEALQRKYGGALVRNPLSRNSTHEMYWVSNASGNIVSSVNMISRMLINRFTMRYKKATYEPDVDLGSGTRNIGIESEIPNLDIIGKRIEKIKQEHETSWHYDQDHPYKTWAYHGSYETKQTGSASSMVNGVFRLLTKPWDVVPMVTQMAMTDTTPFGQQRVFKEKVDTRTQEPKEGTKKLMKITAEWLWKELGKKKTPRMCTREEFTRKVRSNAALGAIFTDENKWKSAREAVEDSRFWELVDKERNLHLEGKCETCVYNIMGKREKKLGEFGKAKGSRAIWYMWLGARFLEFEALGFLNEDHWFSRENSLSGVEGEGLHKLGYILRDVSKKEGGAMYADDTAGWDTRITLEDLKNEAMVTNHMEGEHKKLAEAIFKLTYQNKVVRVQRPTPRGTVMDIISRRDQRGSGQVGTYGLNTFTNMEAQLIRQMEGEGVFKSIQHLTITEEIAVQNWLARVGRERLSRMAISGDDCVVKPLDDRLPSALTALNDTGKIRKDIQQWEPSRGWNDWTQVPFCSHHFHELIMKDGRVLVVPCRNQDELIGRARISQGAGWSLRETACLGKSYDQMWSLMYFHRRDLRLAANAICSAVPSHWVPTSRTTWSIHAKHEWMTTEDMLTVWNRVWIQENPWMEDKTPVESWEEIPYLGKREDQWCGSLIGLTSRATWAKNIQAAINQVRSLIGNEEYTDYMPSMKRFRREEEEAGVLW
Cytochrome P450 2C19, sequence (P33261 whole entry): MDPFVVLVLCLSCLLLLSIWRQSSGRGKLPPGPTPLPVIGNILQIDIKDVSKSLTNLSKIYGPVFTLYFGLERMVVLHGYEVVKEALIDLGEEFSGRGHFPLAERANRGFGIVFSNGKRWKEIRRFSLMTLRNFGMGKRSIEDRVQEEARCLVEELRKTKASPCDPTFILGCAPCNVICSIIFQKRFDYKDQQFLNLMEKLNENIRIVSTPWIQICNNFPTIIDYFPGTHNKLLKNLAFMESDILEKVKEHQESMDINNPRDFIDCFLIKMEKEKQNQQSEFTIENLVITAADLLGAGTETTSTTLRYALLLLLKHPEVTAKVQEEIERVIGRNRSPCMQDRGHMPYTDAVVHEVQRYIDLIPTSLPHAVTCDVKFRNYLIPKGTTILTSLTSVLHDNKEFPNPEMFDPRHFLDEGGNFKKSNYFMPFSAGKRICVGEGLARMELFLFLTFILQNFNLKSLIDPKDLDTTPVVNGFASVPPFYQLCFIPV

`CCOC(=O)c1[nH]c2ccc(Cl)cc2c1-c1ccccc1`: at X-box-binding protein 1, the “Absolute IC50 (XBP1)” value was 10 µM. Besides, on Cytochrome P450 2C19, the AC50 was 4.47 µM (inconclusive).

On to `O=C(c1cc(-c2ccco2)nc2ccccc12)N1CCC(CO)CC1`, for which the IC50 in [1] was > 56.8 µM (inactive).

With `Cc1ccc(C2CC(=O)NC(SCCC(C)C)=C2C#N)cc1` (configuration not stated), the concentration giving a half-maximal response (EC50) in experiment [2] is > 50 µM (active).

Consider `CCN(CC)C(=O)C1CCCN(c2ccc([N+](=O)[O-])cc2/C=N/NC(=O)c2cccc([N+](=O)[O-])c2)C1` (configuration not stated), for which the CC50 in experiment [3] is > 40 µM (active).

Consider `O=[N+]([O-])c1ccc(S(=O)(=O)c2ccccc2)nc1`, for which the IC50 was 3.48 µM (active) in [4], 13.1 µM (active) in experiment [8] and 2.65 µM (active) in experiment [16]. Moreover, the AC50 in experiment [5] was 4.77 µM (active); in [6], 8.17 µM (active); in experiment [11] it was 8.59 µM (active); in experiment [13] it was 1.74 µM (active); in [14] it was 3.97 µM (active); in the experiment with INS1, 6.73 µM (active). In addition, the figures for the half-maximal activity concentration (AC50) in [15], in experiment [17] and in experiment [18] were 3.96 µM (active), 6.81 µM (active) and 16.2 µM (active), respectively. The 50% effective concentration (EC50) is 1.89 µM (active) in experiment [7], > 40 µM (inactive) on Beta-galactosidase, 2.5 µM (active) in experiment [10] and 5.64 µM (active) in [12]. Further, the CC50 in experiment [9] is 8.09 µM (active).

As to `Fc1cccc2sc(Nc3nnc(-c4ccccc4)o3)nc12`, the CC50 in the experiment on Vero is 27 µM (active). Moreover, the half-inhibitory concentration (IC50) on Genome polyprotein was 50.2 µM (active). In addition, the figures for the EC50 (in experiment [19]; in experiment [20]; with Streptococcus) were 44.2 µM (active), 2 µM (active) and 6.97 µM (active), respectively.

For orientation: AC50 means the concentration at which the activity in the assay is half-maximal. Broadly, the IC50 is the concentration needed to halve the response being measured. As usually defined, the EC50 is the concentration that produces a half-maximal response.

Values taken from ChEMBL document CHEMBL1201862, “PubChem BioAssay data set” (2004).
